# Read-outs that look alike come from different tables or passages of the source.
# How the values were obtained:
# [1] = NGI cascade impactor test, active dry powder inhaler with piezoelectric vibrator; type: physicochemical; settings: NGI approx. 30 L/min for 2 seconds
# Excerpt: The inhaler device included injection molded plastic components, electronics, a battery, and drug filled blisters. The inhaler included a lever arm, upon actuation of which the blister was placed in contact with a piezoelectric vibrator within the device and then pierced by needles. The inhaler also included an airflow sensor which automatically turned on the piezoelectric vibrator after a minimum inspiratory flow rate was exceeded. Activation of the piezoelectric vibrator […] powder particles and aerosolized them out of the blister and into the inspiratory airstream. The inhaler included visual feedback at the start of dosing and as confirmation of successful completion of dosing, thereby facilitating improved patient compliance. […] A blend containing disodium cromoglycate (DSCG) (Cambrex) and lactose monohydrate (DFE Pharma) (grade: lactohale LH201) was prepared by blending at a speed of 150 rpm for 15 minutes. The blend contained 60:40 (wt/wt.) DSCG:lactose. Neat DSCG also was tested.
# [2] = NGI cascade impactor test, single-use passive dry powder inhaler ([…], Aespira); type: physicochemical; settings: NGI approx. 100 L/min for 2.4 seconds
# Method: Delivery of cromolyn by a single-use passive dry powder inhaler device was assessed. The passive inhaler device included an active particle dispersion mechanism ([…]) involving breath-driven beating of a mesh package containing the powder to be delivered. A blend containing disodium cromoglycate (DSCG) (Cambrex) and Lactohale LH300 lactose (Friesland Foods Domo) was prepared by blending in an Alpine Picoline high shear mixer (module Picomix) (Hosokawa Alpine, Augsburg, Germany) at a speed of 4000 rpm for 3 minutes. The blend contained 80:20 (wt/wt.) DSCG:lactose. Neat DSCG also was tested.
# [3] = NGI impactor fractions with AZHALER dry powder inhaler; type: physicochemical; settings: per 17.1 mg of API
# Excerpt: AZHALER. […] It is a single-dose device used to deliver the inhalation powder to the patient's lung in form of an aerosol. The inhaler consists of a container, a valve, and a mouthpiece. In this study the low resistance model (80 L airflow resistance) was used. These device reaches a pressure drop of 4 kPa at c.80 L/min, and is suitable for use on a wide range of patient population i.e. including elderly, children and patients with severe respiratory impairment
# [4] = Phase 1 pharmacokinetic study of inhaled cromolyn, plasma; type: in vivo, human; settings: for Tmax / Vd/F / AUC(0-inf) / Cmax / half-life: human; for half-life: read-out: apparent t1/2 range
# [5] = Initial characterization of manufactured cromolyn (particle size distribution); type: physicochemical
# Excerpt: Cromolyn capsules for inhalation were manufactured by Pharmaterials, Ltd (Reading, UK). […] Therefore, there was a need to use hydrophobic excipient in the powder formulation to improve product performance and stability. Addition of hydrophobic excipient offers inherent resistance of dry powder inhalation formulations to negative effect of moisture to such formulations. Magnesium stearate was chosen as suitable hydrophobic excipient since it is commercially used in dry powder inhaler (DPI) products. […] Lactose monohydrate was additionally used as diluent for this case.
# [6] = 17.1 mg single inhaled dose, mean
# [7] = 34.2 mg double inhaled dose, mean
# [8] = inhaled or intranasal, 17.1 mg, 17.1 mg single inhaled dose, mean
# [9] = inhaled or intranasal, 34.2 mg, 34.2 mg double inhaled dose, mean
compound,measurement,setting,value
"O=C(O)c1cc(=O)c2c(OCC(O)COc3cccc4oc(C(=O)O)cc(=O)c34)cccc2o1 [DSCG:lactose 100:0, disodium cromoglycate]",Fine Particle Dose <5 μm,[1],2321 µg
same,Fine Particle Fraction <5 μm,[1],59 % of delivered dose
same,Stages 4 to 8,[1],2098 µg
same,Stages 4 to 8 (% of initial dose),[1],42 % of initial dose
same,Fine Particle Dose <5 μm,[2],430 µg
same,Fine Particle Dose <5 μm (% of initial dose),[2],9 % of initial dose
same,MMAD,[2],>4 μm
same,Stages 4 to 8,[2],150 µg
same,Stages 4 to 8 (% of initial dose),[2],3 % of initial dose
"O=C(O)c1cc(=O)c2c(OCC(O)COc3cccc4oc(C(=O)O)cc(=O)c34)cccc2o1 [cromolyn, 5,5′-(2-hydroxypropane-1,3-diyl)bis(oxy)bis(4-oxo-4H-chromene-2-carboxylic acid)]",cromolyn in the impactor fractions with <3 micron size particles (NGI stage 4-MOC),[3],4 to 5 mg
same,Cl/F,[4]; [6],108532.36 mL/h
same,T0.5,[4]; [6],1.75 ± 0.9 h
same,T0.5,"[4]; 17.1 mg single inhaled dose, mean, listed as Cromolyn",1.75 h
same,Cl/F,"[4]; 17.1 mg, Max",183363.7 mL/h
same,T0.5,"[4]; 17.1 mg, Max",3.7 h
same,T0.5,"[4]; 17.1 mg, Min","0.6, h"
same,Cl/F,"[4]; 17.1 mg, median",82640.18 mL/h
same,T0.5,"[4]; 17.1 mg, median",1.56 h
same,Cl/F,[4]; [7],132178.06 mL/h
same,T0.5,[4]; [7],1.91 ± 0.7 h
same,T0.5,"[4]; 34.2 mg double inhaled dose, mean, listed as Cromolyn",1.91 h
same,Cl/F,"[4]; 34.2 mg, median",130382.20 mL/h
same,T0.5,"[4]; 34.2 mg, median",1.80 h
same,Tmax,[4]; [8],22.8 min
same,Vd/F,[4]; [8],137 L
same,AUC(0-inf),"[4]; inhaled or intranasal, 17.1 mg, 17.1 mg single inhaled dose, mean, read-out: AUC0-inf",196 ± 97.3 ng·h/mL
same,Cmax,"[4]; inhaled or intranasal, 17.1 mg, 17.1 mg single inhaled dose, mean, read-out: Cmax",46.7 ng/mL
same,half-life,"[4]; inhaled or intranasal, 17.1 mg",36 to 222 min
same,AUC(0-inf),"[4]; inhaled or intranasal, 17.1 mg, single (17.1 mg) dose inhalation, range, read-out: AUC0-inf range",93.3 to 287 ng·h/mL
same,Cmax,"[4]; inhaled or intranasal, 17.1 mg, single dose (17.1 mg) inhalation, mean ± SD, read-out: average Cmax",46.7 ± 33 ng/mL
same,Cmax,"[4]; inhaled or intranasal, 17.1 mg, single dose (17.1 mg) inhalation, range, read-out: Cmax range",14 to 133 ng/mL
same,Tmax,[4]; [9],22.2 min
same,Vd/F,[4]; [9],330 L
same,AUC(0-inf),"[4]; inhaled or intranasal, 34.2 mg, 34.2 mg double inhaled dose, mean, read-out: AUC0-inf",285 ± 91.3 ng·h/mL
same,Cmax,"[4]; inhaled or intranasal, 34.2 mg, 34.2 mg double inhaled dose, mean, read-out: Cmax",96.8 ng/mL
same,AUC(0-inf),"[4]; inhaled or intranasal, 34.2 mg, double (34.2 mg) dose inhalation, range, read-out: AUC0-inf range",155 to 443 ng·h/mL
same,Cmax,"[4]; inhaled or intranasal, 34.2 mg, double dose (34.2 mg) inhalation, mean ± SD, read-out: average Cmax",96.8 ± 46.2 ng/mL
same,Cmax,"[4]; inhaled or intranasal, 34.2 mg, double dose (34.2 mg) inhalation, range, read-out: Cmax range",36.1 to 236 ng/mL
same,half-life,"[4]; inhaled or intranasal, double dose (34.2 mg) inhalation, range",42 to 228 min
same,Tmax,"[4]; inhaled, 17.1 mg, Max",60 min
same,Vd/F,"[4]; inhaled, 17.1 mg, Max",144 L
same,AUC(0-inf),"[4]; inhaled, 17.1 mg, Max, read-out: AUC0-inf",287 ng·h/mL
same,Cmax,"[4]; inhaled, 17.1 mg, Max, read-out: Cmax",133 ng/mL
same,Tmax,"[4]; inhaled, 17.1 mg, Min",6 min
same,Vd/F,"[4]; inhaled, 17.1 mg, Min",134 L
same,AUC(0-inf),"[4]; inhaled, 17.1 mg, Min, read-out: AUC0-inf",93.3 ng·h/mL
same,Cmax,"[4]; inhaled, 17.1 mg, Min, read-out: Cmax",14 ng/mL
same,Tmax,"[4]; inhaled, 17.1 mg, median",15 min
same,Vd/F,"[4]; inhaled, 17.1 mg, median",134 L
same,AUC(0-inf),"[4]; inhaled, 17.1 mg, median, read-out: AUC0-inf",207 ng·h/mL
same,Cmax,"[4]; inhaled, 17.1 mg, median, read-out: Cmax",36.2 ng/mL
same,Tmax,"[4]; inhaled, 34.2 mg, median",13.8 min
same,Vd/F,"[4]; inhaled, 34.2 mg, median",264 L
same,AUC(0-inf),"[4]; inhaled, 34.2 mg, median, read-out: AUC0-inf",262 ng·h/mL
same,Cmax,"[4]; inhaled, 34.2 mg, median, read-out: Cmax",76.5 ng/mL
same,initial characterization of the material,[5]; manufactured cromolyn,crystalline and hygroscopic material
same,particle size distribution d50,[5]; micronized cromolyn,< 5 μm
same,particle size distribution d90,[5]; micronized cromolyn,< 10 μm
